{"source": "ChEMBL document CHEMBL3792365", "about": "“Dioxol and dihydrodioxin analogs of 2- and 3-phenylacetonitriles as potent anti-cancer agents with nanomolar activity against a variety of human cancer cells” (2016)", "type_in_all_cases": "functional", "key": {"[1]": {"experiment": "Growth inhibition of human SNB75 cells at 10 uM after 48 hrs by sulforhodamine B assay", "conditions": "SNB-75, 48 h, values are per cent of control"}, "[2]": {"test_system": "U-251", "experiment": "Growth inhibition of human U251 cells at 10 uM after 48 hrs by sulforhodamine B assay", "conditions": "U-251, 48 h, values are per cent of control"}, "[3]": {"experiment": "Growth inhibition of human LOXIMVI cells at 10 uM after 48 hrs by sulforhodamine B assay", "conditions": "LOX IMVI, values are per cent of control"}, "[4]": {"test_system": "M14", "experiment": "Growth inhibition of human M14 cells at 10 uM after 48 hrs by sulforhodamine B assay", "conditions": "M14, 48 h, values are per cent of control"}, "[5]": {"test_system": "MDA-MB-435", "experiment": "Growth inhibition of human MDA-MB-435 cells at 10 uM after 48 hrs by sulforhodamine B assay", "conditions": "MDA-MB-435, 48 h, values are per cent of control"}, "[6]": {"test_system": "SK-MEL-2", "experiment": "Growth inhibition of human SK-MEL-2 cells at 10 uM after 48 hrs by sulforhodamine B assay", "conditions": "SK-MEL-2, 48 h, values are per cent of control"}, "[7]": {"test_system": "SK-MEL-28", "experiment": "Growth inhibition of human SK-MEL-28 cells at 10 uM after 48 hrs by sulforhodamine B assay", "conditions": "SK-MEL-28, 48 h, values are per cent of control"}, "[8]": {"test_system": "SK-MEL-5", "experiment": "Growth inhibition of human SK-MEL-5 cells at 10 uM after 48 hrs by sulforhodamine B assay", "conditions": "SK-MEL-5, 48 h, values are per cent of control"}, "[9]": {"experiment": "Growth inhibition of human OVCAR4 cells at 10 uM after 48 hrs by sulforhodamine B assay", "conditions": "OVCAR-4, 48 h, values are per cent of control"}, "[10]": {"experiment": "Growth inhibition of human OVCAR5 cells at 10 uM after 48 hrs by sulforhodamine B assay", "conditions": "OVCAR-5, 48 h, values are per cent of control"}, "[11]": {"experiment": "Growth inhibition of human OVCAR8 cells at 10 uM after 48 hrs by sulforhodamine B assay", "conditions": "OVCAR-8, 48 h, values are per cent of control"}, "[12]": {"experiment": "Growth inhibition of human NCI-ADR-RES cells at 10 uM after 48 hrs by sulforhodamine B assay", "conditions": "values are per cent of control"}, "[13]": {"experiment": "Growth inhibition of human SKOV3 cells at 10 uM after 48 hrs by sulforhodamine B assay", "conditions": "SK-OV-3, 48 h, values are per cent of control"}, "[14]": {"test_system": "786-0", "experiment": "Growth inhibition of human 786-0 cells at 10 uM after 48 hrs by sulforhodamine B assay", "conditions": "786-0, 48 h, values are per cent of control"}, "[15]": {"test_system": "A498", "experiment": "Growth inhibition of human A498 cells at 10 uM after 48 hrs by sulforhodamine B assay", "conditions": "A498, 48 h, values are per cent of control"}, "[16]": {"test_system": "ACHN", "experiment": "Growth inhibition of human ACHN cells at 10 uM after 48 hrs by sulforhodamine B assay", "conditions": "values are per cent of control"}, "[17]": {"experiment": "Growth inhibition of human Caki1 cells at 10 uM after 48 hrs by sulforhodamine B assay", "conditions": "CAKI-1, 48 h, values are per cent of control"}, "[18]": {"experiment": "Growth inhibition of human RXF393 cells at 10 uM after 48 hrs by sulforhodamine B assay", "conditions": "RXF 393, 48 h, values are per cent of control"}, "[19]": {"test_system": "SN12C", "experiment": "Growth inhibition of human SN12C cells at 10 uM after 48 hrs by sulforhodamine B assay", "conditions": "values are per cent of control"}, "[20]": {"experiment": "Growth inhibition of human TK10 cells at 10 uM after 48 hrs by sulforhodamine B assay", "conditions": "TK-10, 48 h, values are per cent of control"}, "[21]": {"experiment": "Growth inhibition of human UO31 cells at 10 uM after 48 hrs by sulforhodamine B assay", "conditions": "UO-31, 48 h, values are per cent of control"}, "[22]": {"experiment": "Growth inhibition of human DU145 cells at 10 uM after 48 hrs by sulforhodamine B assay", "conditions": "DU-145, 48 h, values are per cent of control"}, "[23]": {"test_system": "MDA-MB-231", "experiment": "Growth inhibition of human MDA-MB-231 cells at 10 uM after 48 hrs by sulforhodamine B assay", "conditions": "MDA-MB-231, 48 h, values are per cent of control"}, "[24]": {"experiment": "Growth inhibition of human BT549 cells at 10 uM after 48 hrs by sulforhodamine B assay", "conditions": "BT-549, 48 h, values are per cent of control"}, "[25]": {"test_system": "MDA-MB-468", "experiment": "Growth inhibition of human MDA-MB-468 cells at 10 uM after 48 hrs by sulforhodamine B assay", "conditions": "MDA-MB-468, 48 h, values are per cent of control"}, "[26]": {"test_system": "K562", "experiment": "Growth inhibition of human K562 cells at 10 uM after 48 hrs by sulforhodamine B assay", "conditions": "K562, 48 h, values are per cent of control"}, "[27]": {"test_system": "A549", "experiment": "Growth inhibition of human A549/ATCC cells at 10 uM after 48 hrs by sulforhodamine B assay", "conditions": "A549, 48 h, values are per cent of control"}, "[28]": {"experiment": "Growth inhibition of human HOP62 cells at 10 uM after 48 hrs by sulforhodamine B assay", "conditions": "HOP-62, 48 h, values are per cent of control"}, "[29]": {"test_system": "NCI-H226", "experiment": "Growth inhibition of human NCI-H226 cells at 10 uM after 48 hrs by sulforhodamine B assay", "conditions": "NCI-H226, 48 h, values are per cent of control"}, "[30]": {"test_system": "NCI-H322M", "experiment": "Growth inhibition of human NCI-H322M cells at 10 uM after 48 hrs by sulforhodamine B assay", "conditions": "values are per cent of control"}, "[31]": {"test_system": "NCI-H460", "experiment": "Growth inhibition of human NCI-H460 cells at 10 uM after 48 hrs by sulforhodamine B assay", "conditions": "NCI-H460, 48 h, values are per cent of control"}, "[32]": {"experiment": "Growth inhibition of human COLO205 cells at 10 uM after 48 hrs by sulforhodamine B assay", "conditions": "COLO 205, 48 h, values are per cent of control"}, "[33]": {"experiment": "Growth inhibition of human HCT116 cells at 10 uM after 48 hrs by sulforhodamine B assay", "conditions": "HCT-116, 48 h, values are per cent of control"}, "[34]": {"test_system": "HT-29", "experiment": "Growth inhibition of human HT-29 cells at 10 uM after 48 hrs by sulforhodamine B assay", "conditions": "HT-29, 48 h, values are per cent of control"}, "[35]": {"test_system": "KM12", "experiment": "Growth inhibition of human KM12 cells at 10 uM after 48 hrs by sulforhodamine B assay", "conditions": "KM12, 48 h, values are per cent of control"}, "[36]": {"experiment": "Growth inhibition of human SW620 cells at 10 uM after 48 hrs by sulforhodamine B assay", "conditions": "SW-620, 48 h, values are per cent of control"}, "[37]": {"experiment": "Growth inhibition of human SF268 cells at 10 uM after 48 hrs by sulforhodamine B assay", "conditions": "SF-268, 48 h, values are per cent of control"}, "[38]": {"experiment": "Growth inhibition of human SF295 cells at 10 uM after 48 hrs by sulforhodamine B assay", "conditions": "SF-295, 48 h, values are per cent of control"}, "[39]": {"experiment": "Growth inhibition of human SF539 cells at 10 uM after 48 hrs by sulforhodamine B assay", "conditions": "SF-539, 48 h, values are per cent of control"}, "[40]": {"experiment": "Growth inhibition of human SNB19 cells at 10 uM after 48 hrs by sulforhodamine B assay", "conditions": "SNB-19, 48 h, values are per cent of control"}}}
{"smiles": "COc1ccc(/C=C(\\C#N)c2ccc3c(c2)OCO3)c(OC)c1", "values": [{"measurement": "growth, % of control at 10 µM", "setting": "[1]", "result": 12.8, "unit": "%"}, {"measurement": "growth, % of control at 10 µM", "setting": "[2]", "result": 29.2, "unit": "%"}, {"measurement": "growth, % of control at 10 µM", "setting": "[3]", "result": 41, "unit": "%"}, {"measurement": "growth, % of control at 10 µM", "setting": "[4]", "result": 16.4, "unit": "%"}, {"measurement": "growth, % of control at 10 µM", "setting": "[5]", "result": -28.6, "unit": "%"}, {"measurement": "growth, % of control at 10 µM", "setting": "[6]", "result": 2.7, "unit": "%"}, {"measurement": "growth, % of control at 10 µM", "setting": "[7]", "result": 50.2, "unit": "%"}, {"measurement": "growth, % of control at 10 µM", "setting": "[8]", "result": 31.7, "unit": "%"}, {"measurement": "growth, % of control at 10 µM", "setting": "[9]", "result": 73.7, "unit": "%"}, {"measurement": "growth, % of control at 10 µM", "setting": "[10]", "result": 81.6, "unit": "%"}, {"measurement": "growth, % of control at 10 µM", "setting": "[11]", "result": 63.1, "unit": "%"}, {"measurement": "growth, % of control at 10 µM", "setting": "[12]", "result": 20.3, "unit": "%"}, {"measurement": "growth, % of control at 10 µM", "setting": "[13]", "result": 33.2, "unit": "%"}, {"measurement": "growth, % of control at 10 µM", "setting": "[14]", "result": 52.1, "unit": "%"}, {"measurement": "growth, % of control at 10 µM", "setting": "[15]", "result": 26.5, "unit": "%"}, {"measurement": "growth, % of control at 10 µM", "setting": "[16]", "result": 59.1, "unit": "%"}, {"measurement": "growth, % of control at 10 µM", "setting": "[17]", "result": 40, "unit": "%"}, {"measurement": "growth, % of control at 10 µM", "setting": "[18]", "result": 40.3, "unit": "%"}, {"measurement": "growth, % of control at 10 µM", "setting": "[19]", "result": 53.3, "unit": "%"}, {"measurement": "growth, % of control at 10 µM", "setting": "[20]", "result": 49.7, "unit": "%"}, {"measurement": "growth, % of control at 10 µM", "setting": "[21]", "result": 46.7, "unit": "%"}, {"measurement": "growth, % of control at 10 µM", "setting": "[22]", "result": 63.9, "unit": "%"}, {"measurement": "growth, % of control at 10 µM", "setting": "[23]", "result": 48.9, "unit": "%"}, {"measurement": "growth, % of control at 10 µM", "setting": "[24]", "result": 35.3, "unit": "%"}, {"measurement": "growth, % of control at 10 µM", "setting": "[25]", "result": 8.3, "unit": "%"}, {"measurement": "growth, % of control at 10 µM", "setting": "[26]", "result": 15.9, "unit": "%"}, {"measurement": "growth, % of control at 10 µM", "setting": "[27]", "result": 36.4, "unit": "%"}, {"measurement": "growth, % of control at 10 µM", "setting": "[28]", "result": 54, "unit": "%"}, {"measurement": "growth, % of control at 10 µM", "setting": "[29]", "result": 73.8, "unit": "%"}, {"measurement": "growth, % of control at 10 µM", "setting": "[30]", "result": 67.6, "unit": "%"}, {"measurement": "growth, % of control at 10 µM", "setting": "[31]", "result": 36, "unit": "%"}, {"measurement": "growth, % of control at 10 µM", "setting": "[32]", "result": 25.4, "unit": "%"}, {"measurement": "growth, % of control at 10 µM", "setting": "[33]", "result": 19.3, "unit": "%"}, {"measurement": "growth, % of control at 10 µM", "setting": "[34]", "result": 10, "unit": "%"}, {"measurement": "growth, % of control at 10 µM", "setting": "[35]", "result": 28.1, "unit": "%"}, {"measurement": "growth, % of control at 10 µM", "setting": "[36]", "result": 31.9, "unit": "%"}, {"measurement": "growth, % of control at 10 µM", "setting": "[37]", "result": 53.1, "unit": "%"}, {"measurement": "growth, % of control at 10 µM", "setting": "[38]", "result": 27.1, "unit": "%"}, {"measurement": "growth, % of control at 10 µM", "setting": "[39]", "result": 19, "unit": "%"}, {"measurement": "growth, % of control at 10 µM", "setting": "[40]", "result": 55.6, "unit": "%"}]}
